Measurements as given in PubChem BioAssay (NCI).
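Tested at 5 concentrations; 48 h exposure; 96-well plates; endpoints linearly interpolated, else capped at highest concentration. TGI denotes the concentration required for complete inhibition of growth.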

Tests used:
Test in all cases: growth of human tumour cells (NCI), 48 h
[1] = system: HCT-15 colon
[2] = system: A549 NSCLC
[3] = system: NCI/ADR-RES ovarian
[4] = system: OVCAR-4 ovarian
[5] = system: HOP-92 NSCLC
[6] = system: MOLT-4 leukemia
[7] = system: SK-MEL-28 melanoma
[8] = system: OVCAR-8 ovarian
[9] = system: HT29 colon
[10] = system: KM12 colon
[11] = system: PC-3 prostate
[12] = system: OVCAR-3 ovarian
[13] = system: SW-620 colon
[14] = system: TK-10 renal
[15] = system: K-562 leukemia
[16] = system: SK-MEL-5 melanoma
[17] = system: T-47D breast
[18] = system: UACC-257 melanoma
[19] = system: CCRF-CEM leukemia
[20] = system: SF-268 CNS
[21] = system: DU-145 prostate
[22] = system: HCC-2998 colon
[23] = system: SF-295 CNS
[24] = system: MCF7 breast
[25] = system: MDA-MB-231 breast
[26] = system: A498 renal
[27] = system: NCI-H522 lung
[28] = system: LOX IMVI melanoma
[29] = system: SNB-19 CNS
[30] = system: MDA-MB-435
[31] = system: NCI-H460 lung
[32] = system: SN12C renal
[33] = system: NCI-H226 lung
[34] = system: SR leukemia
[35] = system: HCT-116 colon
[36] = system: M14 melanoma
[37] = system: SNB-75 CNS
[38] = system: MDA-N
[39] = system: U251 CNS
[40] = system: UO-31 renal
[41] = system: ACHN renal
[42] = system: SK-OV-3 ovarian
[43] = system: HS 578T breast
[44] = system: RXF 393 renal
[45] = system: NCI-H23 lung
[46] = system: COLO 205 colon
[47] = system: MALME-3M melanoma
[48] = system: SF-539 CNS
[49] = system: EKVX NSCLC
[50] = system: 786-0 renal
[51] = system: OVCAR-5 ovarian
[52] = system: HL-60(TB) leukemia
[53] = system: SK-MEL-2 melanoma
[54] = system: UACC-62 melanoma
[55] = system: CAKI-1 renal
[56] = system: BT-549 breast
[57] = system: IGROV1 ovarian
[58] = system: RPMI-8226 leukemia
[59] = system: HOP-62 NSCLC

Measured: TGI

C1CCC(OC2CSC2)OC1 (stereo not drawn)
not listed: [47] | [48] | [49] | [50] | [51] | [52] | [53] | [54] | [55] | [56] | [57] | [58] | [59]
> 100 µM: all other assays above

C=C(CC[C@@H](C(=O)O)[C@H]1[C@H](O)C[C@@]2(C)C3=CC[C@@H](C(=C)C)[C@](C)(CCC(=O)O)C3=CC[C@]12C)C(C)C
40 µM: [7]
36 µM: [52]
29.1 µM: [54]
34.5 µM: [44]
31.5 µM: [40]
30.5 µM: [51]
30.6 µM: [18]
31.9 µM: [32] | [42]
34.7 µM: [31]
32.8 µM: [9] | [39]
33.7 µM: [5]
36.3 µM: [4] | [16] | [33]
55.5 µM: [13]
> 100 µM: [15] | [19]
64.4 µM: [6]
32.3 µM: [49] | [14]
40.8 µM: [47]
31.6 µM: [45]
40.7 µM: [25]
38.4 µM: [28]
31.1 µM: [50]
44.3 µM: [46]
36.5 µM: [37]
31.4 µM: [1] | [23] | [41]
33.5 µM: [30]
30.7 µM: [35]
32.6 µM: [10] | [24]
32.9 µM: [29]
37.7 µM: [48]
42.2 µM: [43]
42.3 µM: [3]
34.3 µM: [11] | [53]
32.7 µM: [36]
33 µM: [56]
32 µM: [38]
28.9 µM: [55]
50.7 µM: [17]
38.9 µM: [21]
39.9 µM: [8]
35.1 µM: [2]
33.2 µM: [12]
38.8 µM: [26]
32.4 µM: [22]
38.3 µM: [27]

Fc1ccc(N=NN2CCCC2)cc1
not listed: [3] | [8] | [11] | [37]
> 100 µM: all other assays above

[N-]=[N+]=NCc1cccc(Nc2cc(=O)[nH]c(=O)[nH]2)c1
not listed: [4] | [11] | [25] | [31] | [39]
> 100 µM: all other assays above

COc1cc2cc(C(=O)N3CC(COS(C)(=O)=O)c4c3cc(N)c3ccccc43)[nH]c2c(OC)c1OC (stereo not drawn)
0.0377 µM: [44]
30.5 µM: [11]
0.228 µM: [33]
0.25 µM: [56]
0.0928 µM: [55]
> 100 µM: [2] | [7] | [12] | [50] | [17] | [18] | [19] | [20] | [51] | [24] | [57] | [58] | [28] | [52] | [53] | [31] | [35] | [38] | [40] | [59] | [46]
< 0.01 µM: [49] | [14] | [21] | [22] | [25] | [41]
1.28 µM: [42]

COP(=O)(OC)C(Cc1c[nH]c2ccccc12)NC(=O)OCc1ccccc1 (stereo not drawn)
29.2 µM: [19]
not listed: [6] | [10] | [20] | [44] | [47] | [48] | [49] | [50] | [54] | [56]
> 100 µM: all other assays above

O=C1C(Br)=CC2(C=C1Br)CCNC1=C2C(=O)c2cccnc2C1=O
3.46 µM: [38]
19.8 µM: [31]
56.7 µM: [9]
31.8 µM: [42]
31.1 µM: [25]
15.8 µM: [52]
3.33 µM: [30]
25.5 µM: [19]
10.9 µM: [53]
22.6 µM: [1]
32.3 µM: [55]
21.8 µM: [57]
18.9 µM: [28]
21.5 µM: [47]
29.3 µM: [7] | [50]
13.9 µM: [27]
33.1 µM: [51]
35.6 µM: [39]
31.9 µM: [22]
39.7 µM: [11]
35.9 µM: [14]
18.2 µM: [45]
12.9 µM: [54]
36.9 µM: [58] | [33]
35.8 µM: [10]
41.3 µM: [24]
32.4 µM: [8]
23.5 µM: [21]
30.1 µM: [2] | [46]
48.9 µM: [41]
49.1 µM: [3]
18.5 µM: [34]
12.8 µM: [16]
17.9 µM: [12]
6.84 µM: [15]
28.5 µM: [49]
21.3 µM: [18] | [36] | [44] | [59]
25.1 µM: [32]
32.2 µM: [20]
24.9 µM: [6]
20 µM: [29]
27.3 µM: [13]
21 µM: [23]
27.1 µM: [37]
68.5 µM: [40]
26.4 µM: [35]
31.2 µM: [4]
20.9 µM: [48]
30.2 µM: [5]
45.3 µM: [43]
